One data set deals with gastric acid output. Conditions: rats given cysteamine or propionitrile; previous studies; cited from earlier work.
The test system of data set [1] is rats. In words: Locomotor (general motor) activity, electronic activity monitor. The format is in vivo, rat (male Sprague-Dawley). The method, then:
(§1) Male Sprague-Dawley (Charles River Labs.) rats (initially 175-200 g) were housed four per cage, with free access to food and water, under controlled lighting (on 7:00 a.m. to 7:00 p.m.), constant temperature 21°-23° C. and controlled humidity (40-50%). Aporphines were administered, as described below, freshly dissolved in 1 mM citric acid mixed with 0.9% (w/v) saline (1:4, vols.); this solvent was also used as a vehicle ("placebo") control. Haloperidol was given in the same medium; 2-diethyl aminoethyl-2,2 diphenylvalerate HCl (SKF-525A) was given in saline.
Locomotor activity was evaluated by use of a printing electronic activity monitor (EAM, Stoelting Co., Chicago, IL) within a sound-attenuated chamber, typically for 60 min., as described previously (Stewart, Campbell, Sperk and Baldessarini, 1979, Psychopharmacology 60 281-289; Campbell and Baldessarini, 1981a, Psychopharmacology 73:219-222.
(§2) In all experiments except those which evaluated the time-course of drug effects, rats were given an injection of vehicle and then allowed to rest for 15 min. to adapt to nonspecific arousal effects, prior to a second injection of test agent (or placebo) and immediate behavioral testing. Behavioral data were evaluated by Student's t-test and are always expressed as mean ±SEM.
Data are mean values ±SEM (N=4 to 8 rats per condition). Animals were pretreated with SKF-525A (40 mg/kg, i.p.) or its vehicle 30 min before MDO-NPA (in the doses noted, from 0 to 3 mg/kg, i.p.). Activity was then monitored electronically for an hour after the low doses of MDO-NPA (data in counts/hour), or rated for stereotypy every 10 min for an hour after higher doses. N.D. indicates "not determined." (*) Indicates a significant difference by t-test between control and oxidase inhibitor-pretreated rats (p<0.01).
Data are mean values ±SEM (N=3 to 6 rats per condition) for effects of seven aporphine compounds (R=substituents, keyed to the structure above). Full chemical names for all compounds are provided in Methods. Ratings are expressed as percent of the maximum possible score (100%)=18.0) of stereotypy (Placebo-injected controls yielded scores of 4.4±2.5%); and as the percent of control locomotor activity (100%=430±86 counts/hr). Data are provided for a dose of 10 mg/kg (i.p.), although doses of 1 and 5 mg/kg were also tested.

In data set [2] the test system is rats. The experiment in a line: Stereotyped behavior of rats (rating scale; score, onset and duration). To be noted: for Stereotypy (percent of the maximum possible score): 100%=18.0, placebo 4.4±2.5%, N=3 to 6; for Stereotypy Score: rated one hour, maximum 18, N=6, mean ±SEM; for Duration of Effect (stereotypy): complete when scores ≤3; for stereotypy scores: NPA 3 mg/kg i.p., N=6. The class given is in vivo, rat (male Sprague-Dawley). The method, then: as §1
Stereotyped behavior was evaluated by a trained observer according to a rating scale method reported previously (Campbell and Baldessarini, 1981a). Briefly, the ratings were as follows: 0, no stereotypy, normal locomotion; 1, discontinuous sniffing, reduced locomotion; 2, continuous sniffing, only periodic exploration; 3, continuous sniffing, mouth movements, infrequent, exploratory activity, Ratings were made each 10 min. by observation for 30 sec, typically for 60 min. (maximum score=18.0/hour).
as §2
Data are mean values ±SEM for N=6 rats per group given doses of each aporphine (1mg/kg/, or approximately 3 umole/kg) by orogastric intubation (P.O.), or subcutaneous (S.C.) or intraperitoneal (I.P.) injection. Stereotypy was rated for one hour as described in Methods and duration is defined as complete when scores diminished to ≤3 (out of a maximum possible score of 18).
Data are mean values ±SEM (N=4 to 8 rats per condition). […] N.D. indicates "not determined." (*) Indicates a significant difference by t-test between control and oxidase inhibitor-pretreated rats (p<0.01).
Stereotypy was rated for 60 min as described in Methods. Data are means SEM (stereotypy scores, when 18=maximum in 1 hour) for N=6 rats per group; (*) indicates p<0.0001 by t test.
Data are mean values ±SEM (N=3 to 6 rats per condition) for effects of seven aporphine compounds (R=substituents, keyed to the structure above). Full chemical names for all compounds are provided in Methods. […] Data are provided for a dose of 10 mg/kg (i.p.), although doses of 1 and 5 mg/kg were also tested.

For a further data set, the system named is duodenal ulcers. In words: Cysteamine-induced duodenal ulcer in the rat. To be noted: for Duodenal Ulcer Intensity (Scale: 0-3): control 1.8; for Duodenal Ulcer Incidence (Positive/Total): control 10/12.
The subject of a further data set is Adenylate cyclase. The experiment in a line: Adenylate cyclase stimulation (cAMP) in rat striatal homogenates. Conditions: 50 μM; control (no addition) 2.38 ± 0.14; p < 0.01; N=4. The format is biochemical.
For data set [3] the following is noted: in vivo, cited from earlier work.
The mark [4] stands for this setting: SKF-525A 40 mg/kg i.p. alone (MDO-NPA dose 0).
[5] abbreviates: 50 μg/100g s.c. once daily seven days.
Where [6] appears, read: 100 μg/100g s.c. once daily seven days.
Setting [7] is: 10 mg/kg i.p.; 100%=430±86 counts/hr; N=3 to 6.

The values below come from US4543256A, “(-)-10,1L Methylenedioxy-N-N-propylnoraporphine and methods employing it for inhibiting the effects of epileptic seizures and for prevention and treatment of duodenal ulcers” (Northeastern University, priority 1982, dated 1985).

Structures can show the parent of a compound that is named as a salt. Where two headings read alike, the source gives them in different places. Some results are limits rather than exact numbers.

Text for Adenylate cyclase: of cAMP in rat striatal homogenates; inhibition of binding of

For `CN1C[C@H](CC#N)C[C@@H]2c3cccc4[nH]c(Cl)c(c34)C[C@H]21` [lergotrile], in the data set on gastric acid output, the “effect on output of gastric acid” value is recorded as “diminished the output of gastric acid”.

In the case of `CCCC(C(=O)OCCN(CC)CC)(c1ccccc1)c1ccccc1` [SKF-525A, 2-diethyl aminoethyl-2,2 diphenylvalerate HCl, reference compound], in the data set with rats [1] (setting [4]), the Activity was found to be 422 ± 28 counts/hour. This compound displayed a Stereotypy in the data set with rats [2] (setting [4]) of 0.

For “(-) 10, 11-Butylidene-2-dioxy-N-n-propylnoraporphine. HCl [Methyl-ethyl MDO--NPA]”, in the data set with rats [2] (10 mg/kg i.p.), the “Stereotypy” value is on record as “weak stereotypic activity”, the “duration of stereotypic activity” value was “about 60 min”, the “onset of stereotypic activity delayed” value is listed as “about 30 min” and the “Stereotypy (percent of the maximum possible score)” value came out at 31.5 ± 1.9%.

On to `CCCN1CCc2cccc3c2[C@H]1Cc1ccc(O)c(O)c1-3` [NPA, N-n-Propylnorapomorphine, reference compound], for which the “Duodenal Ulcer Intensity (Scale: 0-3)” value in the data set on duodenal ulcers (setting [5]) stood at 1.1; in the data set on duodenal ulcers (setting [6]) it was 0.9. Also, the “Duodenal Ulcer Incidence (Positive/Total)” value with duodenal ulcers (setting [5]) is 2/9; in the data set with duodenal ulcers (setting [6]), 6/9. In the data set with duodenal ulcers (single high dose), the “effect of a single high dose on duodenal ulcers” value is reported as “active”. Further, the minimal effective dose in the data set on rats [1] (Rattus norvegicus, ip, read-out: dose producing increases in general motor activity) was greater than 2 µmol/kg. For the same compound, the “motor activity at lower doses (below 2 μmoles/kg)” value with rats [1] (i.p.) was “no significant effect”. Moreover, in the data set with Adenylate cyclase, the “Adenylate cyclase stimulation (cAMP)” value was determined as 5.67 ± 0.28 pmol/assay. Further, the “Stereotypy Score” value with rats [2] (1 mg/kg I.P.) stood at 17.5 ± 1.0; with rats [2] (1 mg/kg P.O.), 0; in the data set with rats [2] (1 mg/kg S.C.), 17.5 ± 0.8. For the same compound, the “Duration of Effect (stereotypy)” value was found to be 70 ± 10 min in the data set on rats [2] (1 mg/kg I.P.), 0 min in the data set on rats [2] (1 mg/kg P.O.) and 72 ± 6 min in the data set on rats [2] (1 mg/kg S.C.). Besides, the stereotypy scores with rats [2] (controls (vehicle pretreated)) is 17.4±0.2; in the data set on rats [2] (oxidase-inhibited (SKF-525A 40 mg/kg i.p.)), 17.0±0.3. In the data set with rats [2] (i.p.), the “dependence of duration of action on dose” value is listed as “much less tendency for duration to increase with dose”. In the data set with rats [2] (i.p., for MDO-NPA at doses above 1 μmole/kg), the “duration of stereotyped behavioral effects vs other agents” value is given as “about equal to, or slightly greater than that of APO”. For the same compound, the oral bioavailability entry in data set [3] (po) is reported as “poor oral bioavailability”. Moreover, the duration of action result in data set [3] was “short duration of action”.

Consider `CCCN1CCc2cccc3c2[C@H]1Cc1c([N+](=O)[O-])cc2c(c1-3)OCO2` [8-Nitro-MDO--NPA], for which the “Locomotion (percent of control locomotor activity)” value in the data set on rats [1] (setting [7]) was found to be 74.4 ± 9.8%. For the same compound, the “Stereotypy (percent of the maximum possible score)” value in the data set with rats [2] (10 mg/kg i.p.) amounted to 4.4 ± 2.5%.

Turning to `CC(C)(C)C1(O)CCN2CC3c4ccccc4CCc4cccc(c43)C2C1` (single isomer, unassigned; (+)) [(+)-butaclamol, reference compound], the “effect on the beneficial effect of NPA and MDO-NPA” value in the data set on duodenal ulcers (combined with NPA or MDO-NPA) was “reversed the beneficial effect of NPA and MDO-NPA”. Further, in the data set on duodenal ulcers (rats given cysteamine), the “effect on cysteamine-induced duodenal ulcers” value is recorded as “aggravated the experimental duodenal ulcers”.

For `CN1CCc2cccc3c2[C@H]1Cc1ccc(O)c(O)c1-3` [APO, apomorphine, reference compound], the minimal effective dose with rats [1] (Rattus norvegicus, ip; read-out: dose producing increases in general motor activity) is greater than 2 µmol/kg. Moreover, the “motor activity at lower doses (below 2 μmoles/kg)” value in the data set with rats [1] (i.p.) was “no significant effect”. Moreover, the results for the “Stereotypy Score” value in the data set on rats [2] (1 mg/kg I.P.), in the data set with rats [2] (1 mg/kg P.O.) and in the data set with rats [2] (1 mg/kg S.C.) were 16.5 ± 2.4, 0 and 17.5 ± 0.4, respectively. Further, the entries for the “Duration of Effect (stereotypy)” value in the data set with rats [2] (1 mg/kg I.P.), with rats [2] (1 mg/kg P.O.) and with rats [2] (1 mg/kg S.C.) were 72 ± 12 min, 0 min and 70 ± 5 min, respectively. The “dependence of duration of action on dose” value in the data set on rats [2] (i.p.) is on record as “much less tendency for duration to increase with dose”. For the same compound, the duration of action entry in data set [3] is listed as “short duration of action”.

On to `CN1CCc2cccc3c2[C@H]1Cc1ccc2c(c1-3)OCO2` [MDO-APO], for which, in the data set on rats [1] (10 mg/kg i.p.), the excitatory effects result was “relatively weak and inconsistent excitatory effects”; the “inhibition of locomotor activity” value is recorded as “significant effect (p 0.01 by t-test) to inhibit locomotor activity”. Besides, the “Stereotypy” value in the data set on rats [2] (10 mg/kg i.p.) was “weak and inconsistent stereotypy (not significant statistically)”. Also, the “behavioral effects after oral administration” value with rats [2] (1 to 5 mg/kg oral) is “no significant behavioral effects”.

Take `CCCCCC1(C)Oc2ccc3c(c2O1)-c1cccc2c1C(C3)N(CCC)CC2.Cl` (single isomer, unassigned; (-)) [Methyl-pentyl-MDO--NPA, (-) 10,11-Heptylidene-2-dioxy-N-n-propylnoraporphine-HCl]: in the data set on rats [1] (setting [7]), the “Locomotion (percent of control locomotor activity)” value came to 86.1 ± 22.3%. Also, the “Stereotypy (percent of the maximum possible score)” value in the data set with rats [2] (10 mg/kg i.p.) stood at 11.1 ± 5.7%.

With `CC(C)C[C@H]1C(=O)N2CCC[C@H]2[C@]2(O)O[C@](NC(=O)[C@@H]3C=C4c5cccc6[nH]c(Br)c(c56)C[C@H]4N(C)C3)(C(C)C)C(=O)N12` [bromocriptine], the “effect on output of gastric acid” value with gastric acid output is given as “diminished the output of gastric acid”.
